From patent US20090029983A1, “NOVEL HETEROCYCLIC COMPOUNDS HAVING ANTI-HBV ACTIVITY” (priority 2005, published 2009) come the findings set out here.

The subject of the assay is HBV. In words: HBV screening assay (viral DNA in baculovirus-HBV transduced HepG2 cells). Type of assay: cell-based. Particulars: Hepatitis B virus, HepG2, 72 h, read-out: EC50 (antiviral activity), HBV-transduced HepG2 cells, three days with compound, viral DNA by ELISA. On the procedure:
HepG2 cells were transduced using a baculovirus to deliver the HBV genome essentially as previously described (Delaney et al. in Hepatology 1998; 28: 1134-1146). Transduced cells were cultured in supplemented EMEM media with 10% fetal bovine serum in a 5% CO2 incubator at 37° C. for three days in the presence of test compounds. The cells were lysed in a buffer containing 0.5% NP-40 and […] proteinase K. A solid-phase hybridization was performed to capture the viral DNA and to label the target DNA with Digoxigenin-labeled DNA probes. The viral DNA was detected by ELISA, using horseradish peroxidase-conjugated anti-digoxigenin antibodies.
The EC50 values were determined using ExcelFit software from the inhibition values of a titration curve for each compound. For CC50 determinations, the same titration of compounds was co-cultured with non-transduced HepG2 for three days under the conditions described above. The Promega CellTiter 96 Aqueous One Solution Cell Proliferation Assay was used to measure cell proliferation/viability. The CC50 values were determined using ExcelFit software from the inhibition values of the titration curve for each compound.
In general terms: An ELISA detects its analyte on a solid surface through an enzyme-linked reagent.
The term EC50 denotes the midpoint of the concentration-response curve. Regarding `CC(C)(C)OC(=O)N1Cc2nc3sc(C(N)=O)c(N)c3c(-c3cccs3)c2C1` [Compound 1, 3-Amino-6-tert-butyloxycarbonyl-4-thiophen-2-yl-6,7-dihydro-5H-1-thia-6,8-diaza-s-indacene-2-carboxylic acid amide], the EC50 was greater than 10 µM.
For `NC(=O)c1sc2nc3c(c(-c4cccs4)c2c1N)CNC3` [Compound 2, 3-Amino-4-thiophen-2-yl-6,7-dihydro-5H-1-thia-6,8-diaza-s-indacene-2-carboxylic acidamide] the value was 1 to 10 µM; for `NC(=O)c1sc2nc3c(c(-c4cccs4)c2c1N)CN(CCCCl)C3` [Compound 3, 3-Amino-6-(3-chloro-propyl)-4-thiophen-2-yl-6,7-dihydro-5H-1-thia-6,8-diaza-s-indacene-2-carboxylic acid amide], 1 to 10 µM.
For `NC(=O)c1sc2nc3c(c(-c4cccs4)c2c1N)CN(CC1CCCCO1)C3` (stereo not shown) [Compound 4, 3-Amino-6-(tetrahydro-pyran-2-ylmethyl)-4-thiophen-2-yl-6,7-dihydro-5H-1-thia-6,8-diaza-s-indacene-2-carboxylic acid amide] the value was greater than 10 µM; for `COc1ccccc1-c1nc(CN2Cc3nc4sc(C(N)=O)c(N)c4c(-c4cccs4)c3C2)no1` [Compound 5, 3-Amino-6-[5-(2-methoxy-phenyl)-[1,2,4]oxadiazol-3-ylmethyl]-4-thiophen-2-yl-6,7-dihydro-5H-1-thia-6,8-diaza-s-indacene-2-carboxylic acid amide], 1 to 10 µM; for `CC(C)CCN1Cc2nc3sc(C(N)=O)c(N)c3c(-c3cccs3)c2C1` [Compound 6, 3-Amino-6-(3-methyl-butyl)-4-thiophen-2-yl-6,7-dihydro-5H-1-thia-6,8-diaza-s-indacene-2-carboxylic aicd amide], greater than 10 µM.
For `NC(=O)c1sc2nc3c(c(-c4cccs4)c2c1N)CN(Cc1ccccn1)C3` [Compound 7, 3-Amino-6-pyridin-2-ylmethyl-4-thiophen-2-yl-6,7-dihydro-5H-1-thia-6,8-diaza-s-indacene-2-carboxylic acid amide] the value was greater than 10 µM; for `NC(=O)c1sc2nc3c(c(-c4cccs4)c2c1N)CN(CC1CC1)C3` [Compound 8, 3-Amino-6-cyclopropylmethyl-4-thiophen-2-yl-6,7-dihydro-5H-1-thia-6,8-diaza-s-indacene-2-carboxylic acid amide], greater than 10 µM.
`NC(=O)c1sc2nc3c(c(-c4cccs4)c2c1N)CN(CCOC(=O)c1ccccc1)C3` [Compound 9, 3-Amino-6-(2-benzoyloxy-ethyl)-4-thiophen-2-yl-6,7-dihydro-5H-1-thia-6,8-diaza-s-indacene-2-carboxylic acid amide]: the concentration for a half-maximal effect (EC50) lay within 1 to 10 µM.
The same measure for `NC(=O)c1sc2nc3c(c(-c4cccs4)c2c1N)CN(CCc1ccccc1)C3` [Compound 10, 3-Amino-6-phenethyl-4-thiophen-2-yl-6,7-dihydro-5H-1-thia-6,8-diaza-s-indacene-2-carboxylic acid amide]: greater than 10 µM; for `NC(=O)c1sc2nc3c(c(-c4cccs4)c2c1N)CN(CC1CCCCC1)C3` [Compound 11, 3-Amino-6-cyclohexylmethyl-4-thiophen-2-yl-6,7-dihydro-5H-1-thia-6,8-diaza-s-indacene-2-carboxylic acid amide]: 1 to 10 µM.
Regarding `NC(=O)c1sc2nc3c(c(-c4cccs4)c2c1N)CN(CC(=O)c1ccc(Cl)cc1)C3` [Compound 12, 3-Amino-6-[2-(4-chloro-phenyl)-2-oxo-ethyl]-4-thiophen-2-yl-6,7-dihydro-5H-1-thia-6,8-diaza-s-indacene-2-carboxylic acidamide], the EC50 is 1 to 10 µM.
For `CC(CO)CN1Cc2nc3sc(C(N)=O)c(N)c3c(-c3cccs3)c2C1` (stereo not shown) [Compound 13, 3-Amino-6-(3-hydroxy-2-methyl-propyl)-4-thiophen-2-yl-6,7-dihydro-5H--thia-6,8-diaza-s-indacene-2-carboxylic acid amide] the value was 1 to 10 µM.
